# Measured values taken from patent US5703056A, “Non-invasive imaging of gene transfer” (priority 1995, dated 1997).
# Where two headings read alike, the source gives them in different places.
# Experiments:
# [1] = tested on: RG2 cells; assay: Ganciclovir sensitivity assay (methyl-[3H]-thymidine accumulation, percent of control); assay type: cell-based; details: Rattus norvegicus; naive RG2 cells; read-out: ganciclovir ED50
# Description: (§1) Sensitivity to ganciclovir and selection of "high" and "low" sensitivity clones. […] Following one day of growth, the culture medium of RG2TK+ and RG2 cells in Costar™ 96-well plates was replaced with ganciclovir™-containing medium (Cytovene™; Syntax Laboratories, Inc.; Palo Alto, Calif.) in the following concentrations: 3, 1, 0.6, 0.3, 0.1, 0.06, 0.03, 0.01, 0,006, 0.003, 0.001, 0.0006, 0.0003, 0.0001, 0.00006 mg/ml and ganciclovir™-free control media. The ganciclovir™-containing and control incubation media were changed daily. […] Radioactivity measured in each ganciclovir™-containing well was expressed as a percent of control (ganciclovir™-free) activity.
# [2] = tested on: RG2TK+ cells; assay: as above; assay type: cell-based, rat; details: for IC50: Rattus norvegicus, read-out: ganciclovir ED50
# Description: Transduction of the HSV1-TK gene into RG2 cells. The STK retrovirus was obtained from filtered (0.1 μm) supernatants of gp-STK-A2 producer cell line cultures grown from a 50% confluent monolayer over 24 hours in Dulbecco's high-glucose medium with 10% bovine serum. Transduction of RG2 cells was accomplished by exposing the cell monolayer to the filtrate for 8 hours in the presence of Polybrene™ (8 μg/ml). Following a 24 hour incubation in standard medium, a selection medium containing Geneticin™ disulfate (800 μg/ml) was used to eliminate cells not expressing the neomycin resistance gene. The selection medium was changed daily to remove dead cells. After 7 days, a bulk culture of transduced RG2 cells (RG2TK+) was harvested for further propogation.
# as §1
# [3] = biological target: HSV1-TK (Human alphaherpesvirus 1 strain 17, UniProt P0DTH5); assay: Accumulation of radiolabelled marker substrates in RG2TK+ transduced and RG2 wild-type cells, normalized to TdR; assay type: cell-based, herpes simplex virus
# Description: Source of radiolabelled "marker substrates". […] No carrier-added 5-[^123 I]-deoxyuridine (IUdR) was prepared by reacting 2-deoxyuridine (UdR) with carrier-free ^123 I-labelled sodium iodide in an iodogen coated reaction vial.
# Comparison of "marker substrates" for identifying HSV1-tk gene expression in tissue culture. […] Each of these substrates were developed for or used as an anti-viral agent; they are phosphorylated by HSV1-TK and can be radiolabelled for noninvasive imaging.
# Wild-type (nontransduced) RG2 cells were studied as a reference control. […] The cells were dislodged from the Petri dishes with a soft scraper, poured into 15 ml conical tubes, centrifuged and the medium aspirated. The tubes were cut to facilitate removing cells; they were blotted, placed in pre-weighed vials, weighed and prepared for counting. Samples were assayed for ^3 H- and ^14 C-radioactivity using a Packard B1600 TriCarb beta spectrometer using dual-channel and external standard splash and quench correction techniques. The medium was also counted before and following incubation. The data was expressed as a harvested cell-to-medium concentration ratio (dpm/g cells.div.dpm/ml medium).
# Data analysis. […] These two related measures are useful to evaluate the intensity of the images (e.g., high "sensitivity") and the ability to differentiate between HSV1-TK and endogenous-TK in the images (e.g., high "selectivity"). The "selectivity" measure is not interpreted as a relative sensitivity (i.e., a value of 1 indicating equal sensitivity) of the substrate to HSV1-TK vs. endogenous-TK. […] They are intended for the direct comparison of substrates only.
# Sequence of HSV1-TK (P0DTH5 whole entry): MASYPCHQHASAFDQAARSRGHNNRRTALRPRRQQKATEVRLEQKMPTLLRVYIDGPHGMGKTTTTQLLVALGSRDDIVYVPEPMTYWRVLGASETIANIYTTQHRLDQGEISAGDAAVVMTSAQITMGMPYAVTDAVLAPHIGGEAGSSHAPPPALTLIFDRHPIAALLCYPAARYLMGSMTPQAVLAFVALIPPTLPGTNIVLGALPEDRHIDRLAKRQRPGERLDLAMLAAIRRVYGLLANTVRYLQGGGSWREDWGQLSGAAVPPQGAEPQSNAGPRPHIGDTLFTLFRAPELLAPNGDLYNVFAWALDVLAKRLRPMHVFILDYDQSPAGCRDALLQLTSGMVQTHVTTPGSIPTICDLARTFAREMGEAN
smiles,measurement,setting,value
"Nc1nc2c(ncn2COC(CO)CO)c(=O)[nH]1 [ganciclovir, 9-(1,3-dihydroxy-2-propoxymethyl)-guanine]",IC50,[1],200 µg/mL
same,fold more sensitive to ganciclovir compared to bulk RG2TK+ cells,"[2]; ""high"" sensitivity RG2TK+ clones (clone #16) vs bulk RG2TK+",5 fold
same,fold less sensitive to ganciclovir compared to bulk RG2TK+ cells,"[2]; ""low"" sensitivity RG2TK+ clones vs bulk RG2TK+",roughly 30 fold
same,IC50,"[2]; ""high-sensitivity"" RG2TK+ clone #16",~0.2 µg/mL
same,IC50,"[2]; ""low-sensitivity"" RG2TK+ clone #32",~30 µg/mL
same,IC50,[2]; bulk culture of transduced RG2TK+ cells,1 µg/mL
same,fold more sensitive to ganciclovir than RG2 cells,[2]; bulk RG2TK+ cells vs wild-type RG2 cells,approximately 200 fold
same,fold more sensitive to ganciclovir than wild-type RG2 cells,[2]; high-sensitivity RG2TK+ clone #16 vs wild-type RG2,approximately 1000 fold
same,Selectivity+ Sensitivity*/(substrate/TdR) for RG2,[3]; Data from FIG. 5,0.143
same,Sensitivity* Δ(substrate/TdR)/Δ(HSV1TK mRNA/S28 RNA IOD),[3]; Data from FIG. 5,0.0004
same,accumulation of ganciclovir by RG2TK+ cells compared to that of FIAU,[3]; RG2TK+ cells,less than 5%
same,accumulation of ganciclovir by RG2TK+ cells compared to that of IUdR,[3]; RG2TK+ cells,< 3%
same,accumulation in bulk RG2TK+ cells relative to wild-type RG2 cells,"[3]; normalized to TdR, FIGS. 4 and 5B",5.6 fold
